Laboratory results published in ChEMBL document CHEMBL5107956, “Natural products from mangrove sediments-derived microbes: Structural diversity, bioactivities, biosynthesis, and total synthesis” (Eur J Med Chem, 2022).
In brackets after ≈: the same amount, converted by molar mass.

Key:
[1] = test system: OS-RC-2; assay: Antiproliferative activity against human OS-RC-2 cells assessed as cell growth inhibition measured after 72 hrs by CCK-8 assay; type: functional, cell-based; conditions: OS-RC-2, 72 h
[2] = test system: Staphylococcus aureus; assay: Antibacterial activity against Staphylococcus aureus ATCC 25923 assessed as bacterial growth inhibition; type: functional, organism-based
[3] = Antioxidant activity assessed as free radical scavenging activity incubated for 30 mins under dark condition by microplate reader analysis; type: functional
[4] = test system: Candida albicans; assay: Antifungal activity against Candida albicans assessed as fungal growth inhibition measured after 20 hrs; type: functional
[5] = test system: A549; assay: Cytotoxicity against human A549 cells assessed as cell growth inhibition incubated for 48 hrs by CCK-8 assay; type: functional, cell-based; conditions: A549, 48 h
[6] = test system: HCT-116; assay: Cytotoxicity against human HCT-116 cells assessed as cell growth inhibition incubated for 48 hrs by CCK-8 assay; type: functional, cell-based; conditions: HCT-116, 48 h
[7] = test system: Candida albicans; assay: Antifungal activity against Candida albicans ATCC 10231 assessed as fungal growth inhibition by agar dilution method; type: functional
[8] = test system: Staphylococcus aureus; assay: Antibacterial activity against methicillin-resistant Staphylococcus aureus assessed as bacterial cell growth inhibition by agar dilution method; type: functional
[9] = test system: HCT-116; assay: Cytotoxicity against human HCT-116 cells assessed as cell growth inhibition by MTT assay; type: functional, cell-based
[10] = Toxicity in brine shrimp assessed as induction of lethality; conditions: artemia salina; read-out: LD50 (the source's name)
[11] = test system: HL-60; assay: Antiproliferative activity against human HL-60 cells assessed as cell growth inhibition by MTT assay; type: functional, cell-based
[12] = test system: A549; assay: Antiproliferative activity against human A549 cells assessed as cell growth inhibition by MTT assay; type: functional, cell-based
[13] = test system: SGC-7901; assay: Cytotoxicity against human SGC-7901 cells assessed as cell growth inhibition measured after 48 hrs by MTT assay; type: functional, cell-based; conditions: SGC-7901, 48 h
[14] = test system: HeLa; assay: Cytotoxicity against human HeLa cells assessed as cell growth inhibition by MTT assay; type: functional, cell-based
[15] = test system: P388; assay: Cytotoxicity against mouse P388 cells assessed as cell growth inhibition measured after 72 hrs by MTT assay; type: functional, cell-based
[16] = test system: MCF7; assay: Cytotoxicity against human MCF7 cells assessed as cell growth inhibition; type: functional, cell-based
[17] = test system: HepG2; assay: Cytotoxicity against human HepG2 cells assessed as cell growth inhibition; type: functional
[18] = Cytotoxicity against human HM02 cells assessed as cell growth inhibition; type: functional
[19] = test system: HL-60; assay: Antiproliferative activity against human HL-60 cells assessed as cell growth inhibition measured after 72 hrs by CCK-8 assay; type: functional, cell-based; conditions: HL-60, 72 h
[20] = molecular target: Prostaglandin G/H synthase 2 (Homo sapiens) (UniProt P35354); assay: Inhibition of COX2 (unknown origin) at 20 nM relative to control
[21] = Antioxidant activity assessed as free radical scavenging activity incubated for 30 mins by microplate reader analysis; type: functional
[22] = test system: A-375; assay: Cytotoxicity against human A-375 cells assessed as cell growth inhibition by MTT assay; type: functional, cell-based
[23] = test system: HepG2; assay: Cytotoxicity against human HepG2 cells assessed as cell growth inhibition by MTT assay; type: functional, cell-based
[24] = test system: MCF7; assay: Cytotoxicity against human MCF7 cells assessed as cell growth inhibition by MTT assay; type: functional, cell-based
[25] = test system: A549; assay: Cytotoxicity against human A549 cells assessed as cell growth inhibition by MTT assay; type: functional, cell-based

Prostaglandin G/H synthase 2 (Homo sapiens), sequence (P35354 whole entry, looked up): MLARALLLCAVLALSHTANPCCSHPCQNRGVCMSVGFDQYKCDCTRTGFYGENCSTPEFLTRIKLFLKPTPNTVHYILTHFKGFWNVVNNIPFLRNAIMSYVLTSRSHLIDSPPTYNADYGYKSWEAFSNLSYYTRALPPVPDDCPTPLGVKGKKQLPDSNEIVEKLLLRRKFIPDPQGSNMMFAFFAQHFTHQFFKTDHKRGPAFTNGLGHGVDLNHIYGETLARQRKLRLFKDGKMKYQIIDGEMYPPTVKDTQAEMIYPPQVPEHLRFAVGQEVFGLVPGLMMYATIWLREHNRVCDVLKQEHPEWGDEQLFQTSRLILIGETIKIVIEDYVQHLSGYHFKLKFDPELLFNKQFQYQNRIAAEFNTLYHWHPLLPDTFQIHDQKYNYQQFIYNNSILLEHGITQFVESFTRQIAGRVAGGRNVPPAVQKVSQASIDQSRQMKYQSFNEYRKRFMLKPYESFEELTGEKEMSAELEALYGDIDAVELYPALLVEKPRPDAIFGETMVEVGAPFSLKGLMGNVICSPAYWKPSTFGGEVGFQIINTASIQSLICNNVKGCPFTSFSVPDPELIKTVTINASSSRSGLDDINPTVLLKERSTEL

Compound: C=C(C(C)=O)[C@H](O)[C@H](C)/C=C(C)/C=C/C/C(C)=C/Cc1nc(OC)c(OC)c(O)c1C
- IC50 [1]: 2200 nM

Compound: O=C1O/C(=C\c2ccc(O)cc2)C(O)=C1c1ccc(O)cc1 [ASPULVINONE E]
- IC50 [2]: 26100 nM

Compound: C=C1C(=O)CC2OC(=O)C(=C(O)C2CC)CCC2(C)CC(C)C(O2)C(C)C1OC (stereo not given)
- IC50 [3]: 2400 nM

Compound: CCCCC[C@H]1C(=O)O[C@H](C)[C@H](NC(=O)c2cccc(NC=O)c2O)C(=O)O[C@@H](C)[C@@H]1OC(=O)[C@@H](C)C(C)C
- MIC [4]: 5 µg/mL (≈ 9.11 µM)

Compound: C[C@@H]1O[C@@H](Oc2ccc(C3COc4cc(O)ccc4C3=O)cc2)C[C@H](O)[C@@H]1O (stereo not given in full)
- IC50 [5]: 13.5 µg/mL (≈ 34.9 µM)
- IC50 [6]: 13.5 µg/mL

Compound: C/C=C/C=C/CCc1c(O)ccc(O)c1COC
- IC50 [3]: 17600 nM

Compound: C/C1=C\C=C\C(C)C(O)CC(O)C(C)C(O)CCC(C)C(O)CC2(O)OC(CC(OC(=O)CC(=O)O)CC(O)CC(O)CC(O)/C(C)=C/C=C/C(C)C(C(C)CCC/C=C/CCCNC(=N)N)OC1=O)CC(O)C2O (stereo not given)
- MIC [7]: 1.65 µg/mL (≈ 1.54 µM)
- MBC [8]: 8 µg/mL (≈ 7.49 µM)
- MIC [8]: 4 µg/mL (≈ 3.74 µM)
- IC50 [9]: 1.81 µg/mL

Compound: CCC/C=C/[C@@H]1Cc2cc(O)c(C)c(O)c2C(=O)O1
- LC50 [10]: 18.6 µg/mL (≈ 70.9 µM)

Compound: C/N=C(\NC)NCCC/C=C/CCCC(C)C1OC(=O)/C(C)=C/C=C/C(C)C(O)CC(O)C(C)C(O)CCC(C)C(O)CC2(O)OC(CC(OC(=O)CC(=O)O)CC(O)CC(O)CC(O)/C(C)=C/C=C/C1C)CC(O)C2O (stereo not given)
- MIC [7]: 1.65 µg/mL (≈ 1.5 µM)
- MBC [8]: 8 µg/mL (≈ 7.3 µM)
- MIC [8]: 4 µg/mL (≈ 3.65 µM)
- IC50 [9]: 1.81 µg/mL

Compound: COC1=C(CO)O[C@@H]2C[C@@]1(OC)n1c3ccccc3c3c4c(c5c6ccccc6n2c5c31)C(=O)NC4
- IC50 [11]: 1400 nM
- IC50 [12]: 5000 nM

Compound: CC[C@H]1/C=C/C[C@H](CC(C)C)OC(=O)/C(C)=C\[C@H]2C(=O)NC3=CC(=O)c4c(cc(C)c(O)c4C(=O)CC1)[C@@]32O
- IC50 [13]: 2800 nM

Compound: CCC(=O)OCc1c(OCC=C(C)C)c(C)cc(OC)c1C(=O)c1c(O)ccc2c1OC(C)(C)C=C2
- IC50 [14]: 9200 nM

Compound: CC1=CC(=O)[C@H]2C(C)(C)CCC[C@]2(C)[C@@]1(O)C=O
- IC50 ([15]; Mus musculus, P388, 72 h): 8700 nM

Compound: CC[C@H](C)CCC[C@H]1CCCCC(=O)O1
- GI50 [16]: 0.11 µg/mL (≈ 0.518 µM)
- GI50 [17]: 0.11 µg/mL (≈ 0.518 µM)
- GI50 [18]: 0.11 µg/mL (≈ 0.518 µM)

Compound: C/C=C/[C@H](O)[C@H](C)/C=C(C)/C=C/C/C(C)=C/Cc1[nH]c(OC)cc(=O)c1C
- IC50 [19]: < 100 nM

Compound: O=C(CNC(=O)c1ccccc1-n1c(=O)[nH]c2ccccc2c1=O)c1ccccc1
- inhibition [20]: > 65%

Compound: CCOC(=O)[C@]1(Cc2ccccc2)OC(=O)C(O)C1c1ccc(O)cc1 (stereo not given in full)
- inhibition [20]: 98.3%

Compound: C[C@@H]1O[C@@H](Oc2ccc3c(c2)OCC(c2ccc(O)cc2)C3=O)C[C@H](O)[C@@H]1O (stereo not given in full)
- IC50 [5]: 13.5 µg/mL (≈ 34.9 µM)
- IC50 [6]: 13.5 µg/mL

Compound: C=C1CCC(C(C)C)C2/C=C(\C(=O)OC)CC/C=C(/C(=O)O)C(O)CC12 (stereo not given)
- IC50 [6]: 38400 nM

Compound: O=C(O)CCCNC(=O)c1ccc(O)c(O)c1
- IC50 [21]: 4700 nM

Compound: COc1nc(C/C=C(\C)C/C=C/C(C)=C/[C@@H](C)/C=C/[C@@H](C)OC)c(C)c(O)c1OC
- IC50 [19]: < 100 nM

Compound: C=C1C(O)[C@@H]2/C=C/C[C@H](C)C(=O)[C@](C)(O)/C=C/OC(=O)O[C@]23C(=O)N[C@@H](Cc2ccc(OC)cc2)[C@@H]3[C@@H]1C (stereo not given in full)
- IC50 [22]: 470 nM
- IC50 [23]: 470 nM
- IC50 [24]: 470 nM
- IC50 [25]: 470 nM

Compound: COC(=O)Nc1ccc(C)c(NC(=O)N(C)[C@@H]2O[C@H]3C[C@@](C)([C@@H]2OC)n2c4ccccc4c4c5c(c6c7ccccc7n3c6c42)C(=O)NC5)c1
- IC50 [9]: 370 nM

Compound: CC(C)=CCc1cc(C[C@@]2(CC=C(C)C)OC(=O)C(O)C2c2ccccc2)ccc1O (stereo not given in full)
- inhibition [20]: 66.3%

Compound: COc1ccc(C[C@@H]2NC(=O)[C@@]34OC(=O)O/C=C/[C@@](C)(O)C(=O)[C@@H](C)C/C=C/[C@H]3C(O)C(C)=C(C)[C@@H]24)cc1 (stereo not given in full)
- IC50 [22]: 470 nM
- IC50 [23]: 470 nM
- IC50 [24]: 470 nM
- IC50 [25]: 470 nM

Compound: C=CC(C)(C)c1[nH]c2ccccc2c1/C=C1\NC(=O)[C@]2(C[C@H](C)C=C[C@@H]2CCc2c(O)cc(CC=C(C)C)c(O)c2C=O)NC1=O (stereo in doubt)
- IC50 ([15]; p388): 2500 nM

Compound: C/C=C/[C@H](OC)[C@H](C)/C=C(C)/C=C/C/C(C)=C/Cc1nc(OC)c(OC)c(O)c1C
- IC50 [19]: < 100 nM

Compound: CCCCC[C@@H]1Cc2cc(O)c(C)c(O)c2C(=O)O1
- LC50 [10]: 7.7 µg/mL (≈ 29.1 µM)
